Laboratory results published in paper PMC6812009, “Covalent Aurora A regulation by the metabolic integrator coenzyme A” (Redox Biology, 2019).

Key:
Assay in all cases: Kinase profiling screen (radioactive filter-binding assay)
Format in all cases: biochemical
[1] = biological target: T1, Aurora A (Homo sapiens, UniProt O14965); settings: for activity at 100 µM: 100 μM compound, 5 μM ATP, read-out: Kinase activity, % of activity in the absence of inhibitor
T1 sequence (O14965 1-403): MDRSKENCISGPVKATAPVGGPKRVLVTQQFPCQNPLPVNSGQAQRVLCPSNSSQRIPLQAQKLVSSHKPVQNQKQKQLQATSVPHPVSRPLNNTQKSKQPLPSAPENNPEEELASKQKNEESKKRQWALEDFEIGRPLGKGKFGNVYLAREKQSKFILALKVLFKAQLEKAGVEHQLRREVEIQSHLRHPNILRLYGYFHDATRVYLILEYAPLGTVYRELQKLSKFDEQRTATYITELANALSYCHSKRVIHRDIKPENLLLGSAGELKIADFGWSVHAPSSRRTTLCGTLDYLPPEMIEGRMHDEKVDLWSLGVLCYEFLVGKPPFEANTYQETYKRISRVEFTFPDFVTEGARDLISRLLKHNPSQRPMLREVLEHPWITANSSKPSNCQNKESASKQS
Procedure, shortened: (§1)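 Single-point in vitro screen: 100 μM final of CoA, dpCoA and ADP, run in duplicate against recombinant kinase with a model substrate and optimal ATP.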

[2] = biological target: BRK (Homo sapiens, UniProt Q13882); settings: 100 μM compound, 20 μM ATP; read-out: Kinase activity, % of activity in the absence of inhibitor
Chain of BRK (Q13882 whole entry): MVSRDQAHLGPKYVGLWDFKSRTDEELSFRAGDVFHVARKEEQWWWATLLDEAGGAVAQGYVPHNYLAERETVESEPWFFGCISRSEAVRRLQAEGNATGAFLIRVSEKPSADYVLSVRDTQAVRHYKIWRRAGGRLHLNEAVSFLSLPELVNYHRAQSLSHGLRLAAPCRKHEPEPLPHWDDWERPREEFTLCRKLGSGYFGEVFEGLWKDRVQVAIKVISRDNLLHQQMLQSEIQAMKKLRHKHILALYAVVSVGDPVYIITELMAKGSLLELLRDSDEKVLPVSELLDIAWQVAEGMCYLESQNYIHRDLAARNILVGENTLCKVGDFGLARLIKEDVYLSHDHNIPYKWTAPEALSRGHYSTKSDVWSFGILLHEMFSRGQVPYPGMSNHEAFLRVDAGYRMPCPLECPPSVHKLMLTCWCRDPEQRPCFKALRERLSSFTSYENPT
Procedure, shortened: as §1

[3] = biological target: T2, MST2 (Homo sapiens, UniProt Q13188); settings: 100 μM compound, 20 μM ATP; read-out: Kinase activity, % of activity in the absence of inhibitor
T2 sequence (Q13188 1-491): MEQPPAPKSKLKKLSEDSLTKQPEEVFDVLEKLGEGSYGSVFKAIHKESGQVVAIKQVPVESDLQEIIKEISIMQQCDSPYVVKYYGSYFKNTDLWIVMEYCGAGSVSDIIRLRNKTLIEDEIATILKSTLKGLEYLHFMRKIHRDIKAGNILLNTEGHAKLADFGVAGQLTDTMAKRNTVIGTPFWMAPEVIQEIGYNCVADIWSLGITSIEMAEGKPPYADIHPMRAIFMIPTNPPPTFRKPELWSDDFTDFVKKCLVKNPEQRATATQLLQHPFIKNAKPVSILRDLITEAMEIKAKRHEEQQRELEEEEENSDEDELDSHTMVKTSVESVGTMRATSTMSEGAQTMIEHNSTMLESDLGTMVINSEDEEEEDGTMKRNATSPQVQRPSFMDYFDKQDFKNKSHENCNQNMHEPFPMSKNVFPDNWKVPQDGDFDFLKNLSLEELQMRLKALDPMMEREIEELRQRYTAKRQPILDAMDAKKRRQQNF
Procedure, shortened: as §1

[4] = biological target: MST4 (Homo sapiens, UniProt Q9P289); settings: 100 μM compound, 20 μM ATP; read-out: Kinase activity, % of activity in the absence of inhibitor
Chain of MST4 (Q9P289 whole entry): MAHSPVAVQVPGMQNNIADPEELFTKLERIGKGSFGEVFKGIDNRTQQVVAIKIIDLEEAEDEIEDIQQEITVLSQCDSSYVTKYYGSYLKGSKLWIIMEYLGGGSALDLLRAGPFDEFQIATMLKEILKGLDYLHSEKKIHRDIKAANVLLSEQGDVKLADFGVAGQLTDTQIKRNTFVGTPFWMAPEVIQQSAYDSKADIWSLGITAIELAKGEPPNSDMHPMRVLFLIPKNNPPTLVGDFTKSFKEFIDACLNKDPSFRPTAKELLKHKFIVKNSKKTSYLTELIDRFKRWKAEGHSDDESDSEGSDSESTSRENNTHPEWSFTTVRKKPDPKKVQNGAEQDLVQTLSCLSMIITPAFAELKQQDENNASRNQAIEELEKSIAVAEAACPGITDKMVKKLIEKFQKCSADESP
Procedure, shortened: as §1

[5] = biological target: PKCγ (Homo sapiens, UniProt P05129); settings: 100 μM compound, 20 μM ATP; read-out: Kinase activity, % of activity in the absence of inhibitor
Procedure, shortened: as §1

[6] = biological target: T3, PKD1 (Homo sapiens, UniProt Q15139); settings: 100 μM compound, 50 μM ATP; read-out: Kinase activity, % of activity in the absence of inhibitor
T3 sequence (Q15139 1-912): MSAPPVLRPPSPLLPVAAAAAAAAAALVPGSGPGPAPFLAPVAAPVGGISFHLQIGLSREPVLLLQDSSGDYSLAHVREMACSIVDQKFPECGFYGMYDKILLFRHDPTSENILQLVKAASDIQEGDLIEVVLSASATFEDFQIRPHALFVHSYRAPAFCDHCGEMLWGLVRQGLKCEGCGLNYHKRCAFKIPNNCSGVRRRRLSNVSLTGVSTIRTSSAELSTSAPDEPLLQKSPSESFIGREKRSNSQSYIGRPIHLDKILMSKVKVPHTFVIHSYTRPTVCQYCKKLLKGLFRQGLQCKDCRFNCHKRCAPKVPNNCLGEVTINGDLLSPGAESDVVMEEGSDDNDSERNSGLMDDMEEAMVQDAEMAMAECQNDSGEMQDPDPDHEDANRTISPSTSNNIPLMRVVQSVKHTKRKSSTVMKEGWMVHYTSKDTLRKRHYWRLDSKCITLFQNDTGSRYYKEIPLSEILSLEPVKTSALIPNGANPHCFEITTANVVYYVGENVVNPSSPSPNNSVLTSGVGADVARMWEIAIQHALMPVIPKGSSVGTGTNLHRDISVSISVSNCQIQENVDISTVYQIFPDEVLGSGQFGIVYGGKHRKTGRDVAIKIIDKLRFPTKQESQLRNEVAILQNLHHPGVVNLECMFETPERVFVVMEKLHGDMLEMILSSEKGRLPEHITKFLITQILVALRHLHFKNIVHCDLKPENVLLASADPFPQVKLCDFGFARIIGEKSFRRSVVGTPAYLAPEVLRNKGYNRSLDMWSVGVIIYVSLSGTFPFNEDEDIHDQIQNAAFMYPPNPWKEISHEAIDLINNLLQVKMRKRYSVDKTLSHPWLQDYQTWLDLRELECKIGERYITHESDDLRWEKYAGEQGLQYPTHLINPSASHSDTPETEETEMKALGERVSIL
Procedure, shortened: as §1

[7] = biological target: T4, p38γ MAPK (Homo sapiens, UniProt P53778); settings: 100 μM compound, 5 μM ATP; read-out: Kinase activity, % of activity in the absence of inhibitor
T4 sequence (P53778 1-367): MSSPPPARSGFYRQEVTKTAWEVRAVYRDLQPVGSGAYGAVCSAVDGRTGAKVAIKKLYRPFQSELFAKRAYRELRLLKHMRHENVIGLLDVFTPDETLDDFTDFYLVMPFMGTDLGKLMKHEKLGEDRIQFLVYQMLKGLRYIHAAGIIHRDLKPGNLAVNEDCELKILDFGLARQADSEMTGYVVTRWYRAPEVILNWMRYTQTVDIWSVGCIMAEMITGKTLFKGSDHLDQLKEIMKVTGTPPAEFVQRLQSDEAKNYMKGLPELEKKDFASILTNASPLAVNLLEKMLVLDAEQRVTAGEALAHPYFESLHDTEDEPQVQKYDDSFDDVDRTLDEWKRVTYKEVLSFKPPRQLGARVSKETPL
Procedure, shortened: as §1

| Compound | activity at 100 µM [1] [%] | inhibition at 100 µM ([1]; at 100 μM, n = 3) [%] | activity at 100 µM [2] [%] | activity at 100 µM [3] [%] | activity at 100 µM [4] [%] | activity at 100 µM [5] [%] | activity at 100 µM [6] [%] | activity at 100 µM [7] [%] |
| --- | --- | --- | --- | --- | --- | --- | --- | --- |
| CC(C)(COP(=O)(O)OP(=O)(O)OC[C@H]1O[C@@H](n2cnc3c(N)ncnc32)[C@H](O)[C@@H]1OP(=O)(O)O)[C@@H](O)C(=O)NCCC(=O)NCCS [CoA, Coenzyme A] | 13.4 | 87 | 114 | 119 | 107 | 70.2 | 112 | 127 |
| CC(C)(COP(=O)(O)OP(=O)(O)OCC1OC(n2cnc3c(N)ncnc32)C(O)C1O)C(O)C(=O)NCCC(=O)NCCS (stereo not shown) [dpCoA, dephospho-CoA] | 29.9 |  | 83.1 | 72.5 | 89.7 | 66.4 | 104 | 65.9 |
| Nc1ncnc2c1ncn2C1OC(COP(=O)(O)OP(=O)(O)O)C(O)C1O (stereo not shown) [ADP] | 38 |  | 41.3 | 40.5 | 56.9 | 71.9 | 56.2 | 26 |
